Assay results taken from US11633551B2, “Gaseous nitric oxide delivery system and methods of use” (Hansen Pharmaceutical, LLC, priority 2014, dated 2023).
“And” between values parts separate entries of the source, which are not always exact repeats. Equal values may be shown once.

What was measured:
Type in all cases: cell-based
[1] = test system: S. aureus; assay: Colony counts after pressurized gNO, 24 hours infection, Franz cell (3-Ring) or Leg Device; details: 1% gNO after 24 hours of infection
Method: Experiments were also conducted to determine the infection-reducing capability of gNO administration at various pressures below 1.0 ATM (14.695 psi) (independent of and in addition to the pressure applied by the external environment) using both a Franz cell tissue culture device (i.e., 3-Ring) and a portable gNO deliver device (i.e., Leg Device). The results of one set of experiments are illustrated below in Table 1. gNO was administered at a 1% concentration after 24 hours of infection with S. aureus. Flow Rates (cm^3/min or cc) varied from about 100 to about 1500, Purge Flow (liters/min or LPM) varied from about 0.1 to about 1.5, and gNO Exposure Time varied between about 45 minutes to about 105 minutes among the different treatment groups and controls. Colony counts (log CFU) were performed at various dilutions, which are represented in the last eight columns labeled 0, 1×10^−1 through 1×10^−7 (“0” indicates no dilution).

[2] = test system: Pseudomonas aeruginosa (ATTC #BAA-47); assay: Skin sample infection assay, 3 hours infection, bioburden after gNO; details: 1% gNO at 1 ATM (14.695 psi) for 90 minutes, flow rate 0.1 liters/minute; skin samples infected for 3 hours; FIG. 4
Method: (§1) FIG. 4 is a graph illustrating the effects of NO treatment on bioburden using an infection assay, after three hours of infection, according to an embodiment of the present disclosure. Skin samples infected for 3 hours with Staphylococcus, MRSA, Acinetobacter or Pseudomonas and subsequently exposed to 1% gNO at 1 ATM (14.695 psi) for 90 minutes at a flow rate of 0.1 liters/minute. Staphylococcus aureus, subspecies aureus Rosenbach (ATCC #12600); Staphylococcus aureus, subspecies aureus Rosenbach (ATCC #33591), methicillin-resistant strain of Staphylococcus aureus, phage type 92; Acinetobacter baumannii (ATCC #BAA-747); and Pseudomonas aeruginosa (ATTC #BAA-47). Control=infected, untreated tissue. Three sets of triplicates were performed per experiment.

[3] = test system: Acinetobacter baumannii (ATCC #BAA-747); assay: as above; details: 1% gNO at 1 ATM (14.695 psi) for 90 minutes, flow rate 0.1 liters/minute; skin samples infected for 3 hours; FIG. 4
Method: as §1

[4] = test system: MRSA, methicillin-resistant strain of Staphylococcus aureus (ATCC #33591); assay: as above; details: 1% gNO at 1 ATM (14.695 psi) for 90 minutes, flow rate 0.1 liters/minute; skin samples infected for 3 hours; FIG. 4
Method: as §1

[5] = test system: Staphylococcus aureus, subspecies aureus Rosenbach (ATCC #12600); assay: as above; details: 1% gNO at 1 ATM (14.695 psi) for 90 minutes, flow rate 0.1 liters/minute; skin samples infected for 3 hours; FIG. 4
Method: as §1

[6] = test system: cells; assay: MTT assay of cell viability after gNO administration; details: pressurized gNO at about 0.15 ATM (2.2 psi) for about 105 minutes
Method: Additionally, MTT assays were performed to assess cell viability after gNO administration. MTT assays are colorimetric-based assays used to assess cell viability as a function of color variation. As illustrated below in Table 2, cell viability after the administration of pressurized gNO at about 0.15 ATM (2.2 psi) for about 105 minutes varied from about 40%-50%.

[7] = Trial 0.15 ATM, 3-Ring, purge flow 0.1 LPM, flow rate 100 cc, 0.15 ATM, 105 min
[8] = Trial 0.25 ATM, 3-Ring, purge flow 0.1 LPM, flow rate 100 cc, 0.25 ATM, 90 min
[9] = Trial 0.5 ATM, 3-Ring, purge flow 0.1 LPM, flow rate 100 cc, 0.5 ATM, 90 min
[10] = Trial 0.5 ATM, Leg Device, purge flow 1.0 LPM, flow rate 500 cc, 0.5 ATM, 45 min
[11] = Trial 9 attempt, 3-Ring, purge flow 0.1 LPM, flow rate 100 cc, 0.25 ATM, 90 min
[12] = Trial Calf, Leg Device, purge flow 0.1 LPM, flow rate 100 cc, 0.5 ATM, 90 min
[13] = Trial Heel, Leg Device, purge flow 0.1 LPM, flow rate 100 cc, 0.5 ATM, 90 min
[14] = Trial Leg 1, Leg Device, purge flow 1.5 LPM, flow rate 1500 cc, 1 ATM, 90 min
[15] = Trial Leg 2, Leg Device, purge flow 1.5 LPM, flow rate 100 cc, 0.5 ATM, 90 min
[16] = Trial Leg purge, Leg Device, purge flow 0.5 LPM, flow rate 100 cc, 0.25 ATM, 90 min
[17] = Trial Toe, Leg Device, purge flow 0.1 LPM, flow rate 100 cc, 0.5 ATM, 90 min
[18] = Trial d Pressure, Leg Device, purge flow 0.1 LPM, flow rate 100 cc, 0.5 ATM, 45 min

[N]=O [gNO, Nitric Oxide]
Colony counts, 1 × 10−5 dilution [1, 7]: 0 log CFU | Colony counts, 1 × 10−6 dilution [1, 7]: 0 log CFU | Colony counts, 1 × 10−7 dilution [1, 7]: 0 log CFU | Colony counts, 1 × 10−5 dilution [1, 8]: 0 log CFU | Colony counts, 1 × 10−6 dilution [1, 8]: 0 log CFU | Colony counts, 1 × 10−7 dilution [1, 8]: 0 log CFU | Colony counts, 1 × 10−2 dilution [1, 9]: 0 log CFU | Colony counts, 1 × 10−3 dilution [1, 9]: 0 log CFU | Colony counts, 1 × 10−4 dilution [1, 9]: 0 log CFU | Colony counts, 1 × 10−5 dilution [1, 9]: 0 log CFU | Colony counts, 1 × 10−6 dilution [1, 9]: 0 log CFU | Colony counts, 1 × 10−7 dilution [1, 9]: 0 log CFU | Colony counts, 0 (no dilution) [1, 10]: 0 log CFU | Colony counts, 1 × 10−1 dilution [1, 10]: 0 log CFU | Colony counts, 1 × 10−2 dilution [1, 10]: 0 log CFU | Colony counts, 1 × 10−3 dilution [1, 10]: 0 log CFU | Colony counts, 1 × 10−4 dilution [1, 10]: 0 log CFU | Colony counts, 1 × 10−5 dilution [1, 10]: 0 log CFU | Colony counts, 1 × 10−6 dilution [1, 10]: 0 log CFU | Colony counts, 1 × 10−7 dilution [1, 10]: 0 log CFU | Colony counts, 0 (no dilution) [1, 11]: TNTC | Colony counts, 1 × 10−1 dilution [1, 11]: TNTC | Colony counts, 1 × 10−2 dilution [1, 11]: TNTC | Colony counts, 0 (no dilution) [1, 12]: 0 log CFU | Colony counts, 1 × 10−1 dilution [1, 12]: 0 log CFU | Colony counts, 1 × 10−2 dilution [1, 12]: 0 log CFU | Colony counts, 1 × 10−3 dilution [1, 12]: 0 log CFU | Colony counts, 1 × 10−4 dilution [1, 12]: 0 log CFU | Colony counts, 1 × 10−5 dilution [1, 12]: 0 log CFU | Colony counts, 1 × 10−6 dilution [1, 12]: 0 log CFU | Colony counts, 1 × 10−7 dilution [1, 12]: 0 log CFU | Colony counts, 0 (no dilution) [1, 13]: 0 log CFU | Colony counts, 1 × 10−1 dilution [1, 13]: 0 log CFU | Colony counts, 1 × 10−2 dilution [1, 13]: 0 log CFU | Colony counts, 1 × 10−3 dilution [1, 13]: 0 log CFU | Colony counts, 1 × 10−4 dilution [1, 13]: 0 log CFU | Colony counts, 1 × 10−5 dilution [1, 13]: 0 log CFU | Colony counts, 1 × 10−6 dilution [1, 13]: 0 log CFU | Colony counts, 1 × 10−7 dilution [1, 13]: 0 log CFU | Colony counts, 0 (no dilution) [1, 14]: 0 log CFU | Colony counts, 1 × 10−1 dilution [1, 14]: 0 log CFU | Colony counts, 1 × 10−2 dilution [1, 14]: 0 log CFU | Colony counts, 1 × 10−3 dilution [1, 14]: 0 log CFU | Colony counts, 1 × 10−4 dilution [1, 14]: 0 log CFU | Colony counts, 1 × 10−5 dilution [1, 14]: 0 log CFU | Colony counts, 1 × 10−6 dilution [1, 14]: 0 log CFU | Colony counts, 1 × 10−7 dilution [1, 14]: 0 log CFU | Colony counts, 0 (no dilution) [1, 15]: 0 log CFU | Colony counts, 1 × 10−1 dilution [1, 15]: 0 log CFU | Colony counts, 1 × 10−2 dilution [1, 15]: 0 log CFU | Colony counts, 1 × 10−3 dilution [1, 15]: 0 log CFU | Colony counts, 1 × 10−4 dilution [1, 15]: 0 log CFU | Colony counts, 1 × 10−5 dilution [1, 15]: 0 log CFU | Colony counts, 1 × 10−6 dilution [1, 15]: 0 log CFU | Colony counts, 1 × 10−7 dilution [1, 15]: 0 log CFU | Colony counts, 0 (no dilution) [1, 16]: 0 log CFU | Colony counts, 1 × 10−1 dilution [1, 16]: 0 log CFU | Colony counts, 1 × 10−2 dilution [1, 16]: 0 log CFU | Colony counts, 1 × 10−3 dilution [1, 16]: 0 log CFU | Colony counts, 1 × 10−4 dilution [1, 16]: 0 log CFU | Colony counts, 0 (no dilution) [1, 17]: 0 log CFU | Colony counts, 1 × 10−1 dilution [1, 17]: 0 log CFU | Colony counts, 1 × 10−2 dilution [1, 17]: 0 log CFU | Colony counts, 1 × 10−3 dilution [1, 17]: 0 log CFU | Colony counts, 1 × 10−4 dilution [1, 17]: 0 log CFU | Colony counts, 1 × 10−5 dilution [1, 17]: 0 log CFU | Colony counts, 1 × 10−6 dilution [1, 17]: 0 log CFU | Colony counts, 1 × 10−7 dilution [1, 17]: 0 log CFU | Colony counts, 0 (no dilution) [1, 18]: TNTC | Colony counts, 1 × 10−1 dilution [1, 18]: TNTC | Colony counts, 1 × 10−2 dilution [1, 18]: TNTC | Colony counts, 1 × 10−3 dilution [1, 18]: TNTC | Reduction of bioburden (summary of Table 1) ([1]; pressures as low as about 0.15 ATM (2.2 psi), exposure times of about 105 minutes): total kill | Reduction of bioburden [2]: nearly completely eradicated | Reduction of bioburden [3]: nearly completely eradicated | Reduction of bioburden [4]: nearly completely eradicated | Reduction of bioburden [5]: 5 fold | % Viability ([6]; control = 100): 44.7% and 44.2% and 39.9% | Cell viability ([6]; summary of Table 2): 40%-50%
